Assay results reported in patent US10894785B2, “Piperidine derivatives for use in the treatment of pancreatic cancer” (CENTRE HOSPITALIER UNIVERSITAIRE VAUDOIS CHUV, priority 2016, dated 2021).

Legend:
[1] = test system: pancreatic ductal adenocarcinoma (Panc-1); assay: Anti-tumor activity on Panc-1: cell viability by sulforhodamine or MTT assay; assay type: cell-based; conditions: Homo sapiens, Panc-1 cells, 96 hours treatment, 0.001-1000 nM
Procedure: The compounds according to the present invention were evaluated for their anti-tumor activities on pancreatic ductal adenocarcinoma (Panc-1). To this end, 0.5×10^6 human malignant cells were treated with various concentrations (0.001-1000 nM) for 96 hours of FK866 or the compounds according to the present invention. Subsequently cell viability was determined using either sulforhodamine assays as described in Caffa I, et al. (Oncotarget. 2015 May 20; 6(14):11820-32) or MTT assays. Sulforhodamine B is a dye able that binds to cellular proteins. […] For MTT assays, human malignant cells were plated in triplicate on 96-well plates and treated as mentioned above. After 96 hours of incubation, 15 μL of dye solution was added to each well and cells were incubated for an additional 4 hours. Stop solution (100 μL/well) was added for 1 hour and the absorbance was read at 570 nm on a spectrophotometer. To confirm whether the cytotoxicity exerted by these compounds involves programmed cell death, drug-induced cell death was evaluated using annexin V and 7AAD double staining as described by the manufacturer for assessing apoptosis or autophagic-cell death using a Beckman Coulter Cytomics Gallios flow cytometer. Dead cells were identified as annexinV+ and/or 7AAD+. GraphPad Prism version 7.00 (GraphPad Software, San Diego, Calif.) was used for IC50 calculation.

[2] = Pharmacokinetics after intraperitoneal administration in female SCID mice (plasma, LC-MS/MS, non compartmental analysis); assay type: in vivo; conditions: 20 mg/kg IP; for CL: CL calculated as dose/AUC; for Percentage of extrapolated AUC from T6 h to infinity / T1/2α / T1/2β / half-lives in the second phase (6 h→24 h) compared with FK866 / Cmax / Tmax / AUC(0-inf) / AUC(0-t): plasma; for Percentage of extrapolated AUC from T6 h to infinity: relative to AUC0-inf; for T1/2α: t½α (0 -> 6 h); for T1/2β: t½β (6 -> 24 h); for half-lives in the second phase (6 h→24 h) compared with FK866: versus FK866; for Cmax / Tmax / AUC(0-inf) / AUC(0-t): mouse; for AUC(0-inf): log-trapezoidal rule, extrapolated to infinity; for AUC(0-t): read-out: AUC0-8 h
Procedure: The pharmacokinetics parameters of FK866, FE1199, VAL22-2 and MPM07 were determined following intraperitoneal administration (IP) in female SCID mice.
• SCID (Severe Combined ImmunoDeficiency) mice female total 144 • 25 mM in DMSO (dimethylsulfoxyde) of each test drug • Saline solution (0.9%)
Test drugs were dissolved in saline solution at 20 mg/ml. All dosing solutions were controlled by HPLC (High-Performance Liquid Chromatography) analysis. Mouse weight is estimated around 20 g.
Three mice per time point were used in each group.
Blood samples were collected on citrate at 10 min, 30 min, 1 h, 2 h, 4 h, 6 h, 8 h and 24 hours after drug administration. Following centrifugation, resulting plasma was stored at […] pending bioanalysis. Samples were analyzed by LC-MS/MS (Liquid chromatography tandem-mass spectrometry); the lower limit of quantification achieved was between 3 and 12 nM depending on drug. Non compartmental pharmacokinetic analysis was performed on plasma concentration data.

Row | IC50 [1] [nM] | CL [2] [mL/h] | Percentage of extrapolated AUC from T6 h to infinity [2] [%] | T1/2α [2] [min] | T1/2β [2] [h] | half-lives in the second phase (6 h→24 h) compared with FK866 [2] | Cmax [2] [ng/mL] | Tmax [2] [min] | AUC(0-inf) [2] [ng·h/mL] | AUC(0-t) [2] [ng·h/mL] | SMILES
1 | 2.6 | 38.3 | 0.5 | 18.6 | 10.11 | improved and longer half-lives | 12100 | 10 | 5230 | 5200 | N#C/N=C(\NC/C=C/CCC1CCN(C(=O)c2ccco2)CC1)Nc1ccncc1 [FEI-199, (E)-2-Cyano-1-((E)-5-(1-(furan-2-carbonyl)piperidin-4-yl)pent-2-en-1-yl)-3-(pyridin-4-yl)guanidine]
2 | 18.4 | 9.6 | 1.2 | 27.6 | 3.81 | – | 28100 | 10 | 20800 | 20700 | O=C(/C=C/c1cccnc1)NCCCCC1CCN(C(=O)c2ccccc2)CC1 [FK866, (E)-N-[4-(1-benzoylpiperidin-4-yl)butyl]-3-(pyridin-3-yl)acrylamide, reference compound]
3 | 1.5 | 38.5 | 2.0 | 21.6 | 25.59 | improved and longer half-lives | 13200 | 10 | 5200 | 5110 | O=C(/C=C/c1cccnc1F)NCCCCC1CCN(C(=O)c2cccs2)CC1 [MPM-07]
4 | 7.54 | – | – | – | – | – | – | – | – | – | CCCn1cc(C=O)c(C(=O)N2CCC(CCCCNC(=O)/C=C/c3cccnc3F)CC2)c1C [MPM-14, (E)-3-(2-fluoropyridin-3-yl)-N-(4-(1-(4-formyl-2-methyl-1-propyl-1H-pyrrole-3-carbonyl)piperidin-4-yl)butyl)acrylamide]
5 | 14 | – | – | – | – | – | – | – | – | – | O=C(/C=C/c1ccc(F)nc1F)NCCCCC1CCN(C(=O)c2ccccc2)CC1 [PER-201, (E)-N-(4-(1-benzoylpiperidin-4-yl)butyl)-3-(2,6-difluoropyridin-3-yl)acrylamide]
6 | 5 | – | – | – | – | – | – | – | – | – | O=C(/C=C/c1ccc(F)nc1F)NCCCCC1CCN(C(=O)c2cccs2)CC1 [PER-202]
